These results are taken from patent US7501425B1, “Bicyclic pyrimidines and bicyclic 3,4-dihydropyprimidines as inhibitors of cellular proliferation” (Warner Lambert Company, priority 1999, dated 2009).

One data set has as its target cdk4/D (Homo sapiens, UniProt P11802). In words: Cyclin-Dependent Kinase 4 (cdk4) enzyme assay, 32P incorporation. It counts as biochemical. Particulars: 25 μM ATP, retinoblastoma substrate. The method, then: A typical assay, for instance, measures inhibitory activity against the cyclin D dependent kinase 4 enzyme (cdk4/D). […] The cdk4 assay was carried out as follows.
Cyclin-Dependent Kinase 4 (cdk4) Assay
Enzyme assays for IC50 determinations (Tables 1 and 2) and kinetic evaluation were performed in 96 well filter plates (Millipore MADVN6550). The total volume was 0.1 mL containing a final concentration of 20 mM TRIS (tris[hydroxymethyl]aminomethane), at pH 7.4, 50 mM NaCl, 1 mM dithiothreitol, 10 mM MgCl2, 25 μM ATP containing 0.25 μCi of [^32P]ATP, 20 ng of cdk4, 1 μg of retinoblastoma, and appropriate dilutions of a compound of the present invention. All components except the ATP were added to the wells, and the plate was placed on a plate mixer for 2 minutes. The reaction was started by adding [^32P]ATP and the plate was incubated at 25° C. for 15 minutes. The reaction was terminated by addition of 0.1 mL of 20% trichloroacetic acid (TCA). The plate was kept at 4° C. for at least 1 hour to allow the substrate to precipitate. The wells were then washed five times with 0.2 mL of 10% TCA and ^32p incorporation was determined with a beta plate counter (Wallac Inc., Gaithersburg. MD).

For a further data set, the target named is cdk2/cyclinE (Homo sapiens, UniProt P24941). Nature of the data set: Cyclin-dependent kinase assay cdk2/cyclinE. It counts as biochemical. Particulars: read-out: cdk2/E IC50. On the procedure:
(§1) Cyclin-Dependent Kinase Assays (cdk2/cyclinE, cdk2/cyclinA, cdc2/cyclinB)
(§2) All components except the ATP were added to the wells, and the plate was placed on a plate mixer for 2 minutes. The reaction was begun by addition of [^32P]ATP, and the plate was incubated at 25° C. for 15 minutes. The reaction was terminated by addition of 0.1 mL of 20% TCA. The plate was kept at 4° C. for at least 1 hour to allow the substrate to precipitate. The wells were then washed five times with 0.2 mL of 10% TCA and ^32P incorporation determined with a beta plate counter (Wallac Inc., Gaithersburg, Md.).

A further data set deals with cdk2/cyclinA (Homo sapiens, UniProt P24941). In words: Cyclin-dependent kinase assay cdk2/cyclinA. It counts as biochemical. On the procedure:
as §1, §2

For another data set, the target named is cdc2/cyclinB (Homo sapiens, UniProt P06493). In words: Cyclin-dependent kinase assay cdc2/cyclinB (cdk1/B). It is filed as biochemical. On the procedure:
as §1, §2

Data set [1] deals with T1, PDGF-β receptor tyrosine kinase (Mus musculus, UniProt P05622).
T1 construct: amplify a fragment of DNA that codes for the intracellular tyrosine kinase domain; made in house; host or cells: SF9 insect cells (baculovirus)
T1 sequence (P05622 599-961 limits assumed): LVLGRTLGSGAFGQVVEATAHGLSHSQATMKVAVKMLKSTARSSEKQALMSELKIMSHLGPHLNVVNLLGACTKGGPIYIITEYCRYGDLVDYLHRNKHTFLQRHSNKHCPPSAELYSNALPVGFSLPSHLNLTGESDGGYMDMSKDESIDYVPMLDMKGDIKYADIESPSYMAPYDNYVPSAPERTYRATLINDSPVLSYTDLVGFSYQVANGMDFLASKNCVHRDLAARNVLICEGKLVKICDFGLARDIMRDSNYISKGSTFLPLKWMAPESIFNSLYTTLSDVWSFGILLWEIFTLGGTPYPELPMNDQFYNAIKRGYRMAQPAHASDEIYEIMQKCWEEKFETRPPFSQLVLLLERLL
In words: PDGF receptor tyrosine kinase assay. It is filed as biochemical. Particulars: intracellular tyrosine kinase domain, SF9 lysate. On the procedure:
(§3) The assays used to determine these activities were carried out as follows:
(§4) PDGF and FGF Receptor Tyrosine Kinase Assays
(§5) PCR primers were designed to amplify a fragment of DNA that codes for the intracellular tyrosine kinase domain. The fragment was inserted into a baculovirus vector, cotransfected with AcMNPV DNA, and the recombinant virus isolated. SF9 insect cells were infected with the virus to overexpress the protein, and the cell lysate was used for the assay. Assays were performed in 96-well plates (100 μL/incubation/well), and conditions were optimized to measure the incorporation of ^32P from γ^32P-ATP into a glutamate-tyrosine co-polymer substrate. Briefly, to each well was added 82.5 μL of incubation buffer containing 25 mM Hepes (pH 7.0), 150 mM NaCl, 0.1% Triton X-100, 0.2 mM PMSF, 0.2 mM Na3VO4, 10 mM MnCl2, and 750 μg/mL of Poly (4:1) glutamate-tyrosine followed by 2.5 μL of inhibitor and 5 μL of enzyme lysate (7.5 μg/μL FGF-TK or 6.0 μg/μL PDGF-TK) to initiate the reaction. Following a 10 minute incubation at 25° C., […] of γ^32P-ATP (0.4 μCi plus 50 μM ATP) was added to each well, and samples were incubated for an additional 10 minutes at 25° C. […] Nonspecific activity was defined as radioactivity retained on the filters following incubation of samples with buffer alone (no enzyme). […]

The target in the next data set is T2, c-Src (Homo sapiens, UniProt P12931).
T2 construct: made in house; host or cells: baculovirus infected insect cells
T2 sequence (P12931 whole entry, species assumed): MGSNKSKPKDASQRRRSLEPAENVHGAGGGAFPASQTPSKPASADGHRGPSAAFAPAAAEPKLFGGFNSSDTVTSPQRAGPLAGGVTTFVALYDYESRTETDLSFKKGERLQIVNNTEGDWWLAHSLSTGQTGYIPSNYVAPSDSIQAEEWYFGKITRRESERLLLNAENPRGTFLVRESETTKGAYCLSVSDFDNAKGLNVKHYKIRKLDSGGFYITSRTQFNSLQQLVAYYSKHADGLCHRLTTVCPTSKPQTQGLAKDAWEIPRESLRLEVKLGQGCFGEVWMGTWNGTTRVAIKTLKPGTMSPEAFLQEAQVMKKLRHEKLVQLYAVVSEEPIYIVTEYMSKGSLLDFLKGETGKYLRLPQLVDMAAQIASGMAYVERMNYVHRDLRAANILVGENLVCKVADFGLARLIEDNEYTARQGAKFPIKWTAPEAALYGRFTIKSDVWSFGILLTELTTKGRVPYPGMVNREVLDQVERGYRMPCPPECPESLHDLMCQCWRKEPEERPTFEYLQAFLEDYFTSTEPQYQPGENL
In words: c-Src kinase assay. It is filed as biochemical. The settings on record: 5 μM ATP, poly GluTyr substrate. On the procedure: Several of the invention compounds have been evaluated in a standard assay to measure their ability to inhibit cellular Src protein kinase (c-Src). […] The assay was carried out as follows:
c-Src kinase was purified from baculovirus infected insect cell lysates using an antipeptide monoclonal antibody directed against the N-terminal amino acids (amino acids 2-17) of c-Src. The antibody, covalently linked to 0.65 μm latex beads, was added to a suspension of insect cell lysis buffer comprised of 150 mM NaCl, 50 mM Tris pH 7.5, 1 mM DTT, 1% NP-40, 2 mM EGTA, 1 mM sodium vanadate, 1 mM PMSF, 1 μg/mL each of leupeptin, pepstatin, and aprotinin. Insect cell lysate containing c-Src protein was incubated with these beads for 3 to 4 hours at 4° C. with rotation. At the end of the lysate incubation, the beads were rinsed three times in lysis buffer, resuspended in lysis buffer containing 10% glycerol, and frozen. These latex beads were thawed, rinsed three times in assay buffer (40 mM Tris, pH 7.5, 5 mM […]) and suspended in the same buffer. In a Millipore 96-well plate with a 0.65 μm polyvinylidine membrane bottom were added the reaction components: 10 μL c-Src beads, 10 μL of 2.5 mg/mL poly GluTyr substrate, 5 μM ATP containing 0.2 μCi labeled ^32P-ATP, 5 μL DMSO containing inhibitors or as a solvent control, and buffer to make the final volume 125 μL. The reaction was started at room temperature by addition of the ATP and quenched 10 minutes later by the addition of 125 μL of 30% TCA, 0.1 M sodium pyrophosphate for 5 minutes on ice. The plate was then filtered and the wells washed with two […] aliquots of 15% TCA, 0.1 M pyrophosphate. The filters were then punched, counted in a liquid scintillation counter, and the data examined for inhibitory activity in comparison to a known inhibitor such as erbstatin. The method is also described in J. Med. Chem., 1994; 37:598-609. Tables 5 and 6 list c-Src inhibitory concentrations (IC50) for representative invention compounds.

In data set [2] the target is T3, FGF-1 (flg) receptor tyrosine kinase (Homo sapiens, UniProt P11362).
T3 construct: amplify a fragment of DNA that codes for the intracellular tyrosine kinase domain; made in house; host or cells: SF9 insect cells (baculovirus)
T3 sequence (P11362 478-767 limits assumed): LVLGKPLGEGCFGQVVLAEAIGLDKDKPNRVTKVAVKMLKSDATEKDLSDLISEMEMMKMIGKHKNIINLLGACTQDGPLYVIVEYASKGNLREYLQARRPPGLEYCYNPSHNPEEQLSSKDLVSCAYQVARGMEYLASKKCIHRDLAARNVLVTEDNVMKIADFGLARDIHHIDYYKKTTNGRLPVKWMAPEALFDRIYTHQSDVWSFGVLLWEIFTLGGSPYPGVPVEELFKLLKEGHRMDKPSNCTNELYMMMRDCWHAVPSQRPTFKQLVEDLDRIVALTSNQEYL
In words: FGF receptor tyrosine kinase assay. It is filed as biochemical. Particulars: intracellular tyrosine kinase domain, SF9 lysate. The method, then:
as §3, §4, §5

Chain of cdc2/cyclinB (P06493 whole entry, species assumed): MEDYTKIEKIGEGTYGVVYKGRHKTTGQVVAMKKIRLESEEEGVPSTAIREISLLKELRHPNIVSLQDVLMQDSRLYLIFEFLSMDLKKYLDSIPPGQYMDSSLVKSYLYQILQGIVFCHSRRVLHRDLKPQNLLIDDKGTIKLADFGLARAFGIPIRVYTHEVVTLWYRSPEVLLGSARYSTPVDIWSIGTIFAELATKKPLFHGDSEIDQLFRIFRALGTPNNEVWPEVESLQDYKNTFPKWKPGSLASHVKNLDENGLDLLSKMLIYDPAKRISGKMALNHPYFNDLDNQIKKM
Chain of cdc2/cyclinB (P14635 whole entry partner, species assumed): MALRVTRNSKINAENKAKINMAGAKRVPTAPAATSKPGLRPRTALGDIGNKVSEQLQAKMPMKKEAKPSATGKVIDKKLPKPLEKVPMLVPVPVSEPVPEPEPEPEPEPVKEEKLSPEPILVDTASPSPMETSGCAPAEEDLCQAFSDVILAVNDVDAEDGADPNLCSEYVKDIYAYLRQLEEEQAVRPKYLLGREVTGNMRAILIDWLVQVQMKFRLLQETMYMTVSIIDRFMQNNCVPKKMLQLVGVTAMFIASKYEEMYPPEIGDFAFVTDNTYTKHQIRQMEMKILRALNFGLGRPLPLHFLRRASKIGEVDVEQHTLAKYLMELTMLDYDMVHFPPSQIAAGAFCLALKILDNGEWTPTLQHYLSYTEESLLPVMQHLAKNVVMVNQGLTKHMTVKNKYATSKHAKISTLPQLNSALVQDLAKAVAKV
Chain of cdk4/D (P11802 whole entry, species assumed): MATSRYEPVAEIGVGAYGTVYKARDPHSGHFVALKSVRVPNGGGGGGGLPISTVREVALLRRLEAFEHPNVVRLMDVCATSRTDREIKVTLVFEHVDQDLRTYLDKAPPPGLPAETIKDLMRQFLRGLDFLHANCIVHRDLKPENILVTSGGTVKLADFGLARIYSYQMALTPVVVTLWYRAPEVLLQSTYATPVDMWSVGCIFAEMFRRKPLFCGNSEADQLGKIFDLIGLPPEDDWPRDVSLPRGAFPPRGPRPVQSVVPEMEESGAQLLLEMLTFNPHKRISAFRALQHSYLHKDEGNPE
Chain of cdk4/D (P24385 whole entry partner, species assumed): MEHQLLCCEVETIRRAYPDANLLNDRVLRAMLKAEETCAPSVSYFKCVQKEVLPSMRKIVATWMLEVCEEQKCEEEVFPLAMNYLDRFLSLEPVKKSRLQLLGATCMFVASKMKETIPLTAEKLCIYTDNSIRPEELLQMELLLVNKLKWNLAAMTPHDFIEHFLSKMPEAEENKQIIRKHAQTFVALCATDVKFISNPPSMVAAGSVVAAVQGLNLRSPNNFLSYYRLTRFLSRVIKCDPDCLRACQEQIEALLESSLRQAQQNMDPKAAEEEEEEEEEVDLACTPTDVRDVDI

Take `CN(C)C1CCN(c2ccc(Nc3ncc4c(n3)N(C3CCCC3)C(=O)NC4)cc2)CC1` [Example 17, 1-Cyclopentyl-7-{4-[4-(dimethylamino)piperidin-1-yl]phenylamino}-3,4-dihydro-pyrimido[4,5-d]pyrimidin-2(1H)-one]: the melting point – broadly, the temperature of the solid-liquid transition – is > 200 °C (dec.). At cdk4/D, the IC50 was 310 nM. Moreover, the IC50 at cdk2/cyclinE is 3550 nM. In addition, on cdk2/cyclinA, the IC50 worked out at 1310 nM. Further, at cdc2/cyclinB, the IC50 came out at 20200 nM. This compound showed an IC50 in data set [1] of 320 nM. In addition, the IC50 against c-Src stood at 370 nM.

For the compound `O=C1NCc2cnc(Nc3ccc(N4CCC(CCN5CCOCC5)CC4)cc3)nc2N1C1CCCC1` [Example 21], the IC50 came to 165 nM against cdk4/D; 3000 nM on cdk2/cyclinE; 1370 nM on cdk2/cyclinA; 36100 nM against cdc2/cyclinB; 1100 nM in data set [1]; 1600 nM at c-Src.

With `CN1CCN(c2ccc(Nc3ncc4c(n3)N(C3CC5CCC3C5)C(=O)NC4)cc2)CC1` (stereo not drawn) [Example 27, 1-Bicyclo[2.2.1]hept-2-yl-7-[4-(4-methylpiperazin-1-yl)phenylamino]-3,4-dihydro-pyrimido[4,5-d]pyrimidin-2(1H)-one (exo)], the melting point is 251 to 254 °C (dec.). Also, on cdk4/D, the IC50 amounted to 770 nM. Also, the IC50 on cdk2/cyclinE amounted to 1100 nM. This compound yielded an IC50 against cdk2/cyclinA of 530 nM. On cdc2/cyclinB, this compound registered an IC50 of 9770 nM.

Regarding `CC(C)n1c(=O)ncc2cnc(Nc3ccc(N4CCC(CCCN5CCOCC5)CC4)cc3)nc21` [Example 43, 1-Isopropyl-7-{4-[4-(3-(morpholin-4-yl)propyl)piperidin-1-yl]phenylamino}-pyrimido[4,5-d]pyrimidin-2(1H)-one], the IC50 is 540 nM at cdk4/D; 38000 nM at cdk2/cyclinE; 7490 nM at cdk2/cyclinA; over 40000 nM against cdc2/cyclinB; 4930 nM in data set [2].

`CN1CCN(c2ccc(Nc3ncc4cnc(=O)n(C5CC6CCC5C6)c4n3)cc2)CC1` (stereo not drawn) [Example 44, 1-Bicyclo [2.2.1]hept-2-yl-7-[4-(4-methylpiperazin-1-yl)phenylamino]-pyrimido[4,5-d]pyrimidin-2(1H)-one, exo]: the melting point is > 210 °C (dec.). Besides, the IC50 against cdk4/D turned out to be 18 nM. The IC50 on cdk2/cyclinE was 1200 nM. For the same compound, on cdk2/cyclinA, the IC50 is 1030 nM. The compound further returned an IC50 against cdc2/cyclinB of 7360 nM. Moreover, in data set [2], the IC50 is 470 nM. At c-Src, this compound yielded an IC50 of 2300 nM.
